Test results from PubChem BioAssay AID1996.
In brackets after ≈: the same amount, converted by molar mass.

Settings: buffer; pH 7.4; 200.0 µM
With `COc1cccc(C(=O)N2CCN(C(=O)C3CC3)CC2)c1` the solubility kinetic was 40.7 µg/mL (≈ 141 µM).
Work on `O=C(O)c1ccc(Nc2nc(-c3cccnc3)cs2)cc1O` yielded a solubility kinetic of over 47 µg/mL.
`Cc1ccnc(NC(=O)c2ccc(Cl)s2)c1` showed a solubility kinetic of 16.1 µg/mL (≈ 63.7 µM).
Molecule `O=C(CN1C(=O)c2ccccc2S1(=O)=O)c1ccccc1F` has a solubility kinetic of 17.8 µg/mL (≈ 55.7 µM).
For `CC[n+]1ccc(C(=O)NCc2ccccc2)cc1.[Cl-]`, the solubility kinetic was over 41.5 µg/mL.
In the case of `CC(C)c1cc(CN2CCOCC2)cc(C(C)C)c1O`, the solubility kinetic is reported as over 41.6 µg/mL.
`Cc1ccc(NC(=O)CC(C)CC(=O)NCc2ccccc2)cc1Cl` (configuration not stated) showed a solubility kinetic of under 0.4 µg/mL.
Molecule `NC(=O)c1ccccc1NC(=O)N1CCOCC1` has a solubility kinetic of 37.1 µg/mL (≈ 149 µM).
`COc1cccc(OC)c1C(=O)NC(=S)NCc1cccnc1` showed a solubility kinetic of 11.3 µg/mL (≈ 34.1 µM).
In the case of `Cc1nnc(SCC(=O)N(C)C2CCCCC2)s1`, the solubility kinetic is reported as over 42.8 µg/mL.
With `COc1cccc(NC(=O)C2CCCO2)c1` (configuration not stated) the solubility kinetic was 30.5 µg/mL (≈ 138 µM).
Work on `NS(=O)(=O)c1ccc(N=Cc2c(O)c3ccccc3oc2=O)cc1` yielded a solubility kinetic of 19.9 µg/mL (≈ 57.8 µM).
Work on `COc1ccc(N2CCCC2)c(NC(=O)COc2ccccc2)c1` yielded a solubility kinetic of 3.8 µg/mL (≈ 11.6 µM).
In the case of `O=Cc1ccc(-c2ccc([N+](=O)[O-])cc2Cl)o1`, the solubility kinetic is reported as 5.2 µg/mL (≈ 20.7 µM).
In the case of `O=C(O)c1ccccc1-c1ccccc1C(=O)Nc1ccccc1-c1ccccc1`, the solubility kinetic is reported as over 59 µg/mL.
In the case of `COc1ccccc1NC(=O)Nc1cccc(C)n1`, the solubility kinetic is reported as 0.4 µg/mL (≈ 1.55 µM).
`FC(F)(F)c1ccc(NC(=S)NC2CCCCC2)cc1` showed a solubility kinetic of 2.5 µg/mL (≈ 8.27 µM).
For `O=[N+]([O-])c1ccc(NCCCO)c(S(=O)(=O)N2CCOCC2)c1`, the solubility kinetic was 48.8 µg/mL (≈ 141 µM).
For `Cc1ccc(C(=O)Nc2ccccc2N2CCCCC2)cc1`, the solubility kinetic was under 0.3 µg/mL.
Molecule `C/C(=N\NC(=O)CCC(=O)NCc1ccccc1)c1ccco1` has a solubility kinetic of over 47 µg/mL.
For `CNc1cc(C)nc(N2CCOCC2)n1`, the solubility kinetic was over 31.2 µg/mL.
With `COc1ccc(NC(=S)NC2CCCCC2)c(OC)c1` the solubility kinetic was over 44.2 µg/mL.
For `CCNC(=O)CC1C(=O)N(c2ccc(C)cc2)C(=O)N1CCOC` (configuration not stated), the solubility kinetic was over 50 µg/mL.
In the case of `CCN(CC)C(=O)C(C)N(C#N)c1nc(Cl)nc(N(C)C)n1` (configuration not stated), the solubility kinetic is reported as over 48.9 µg/mL.
For `O=C(Nc1ccc(Br)cc1Cl)c1ccc(OCC2CCCO2)cc1` (configuration not stated), the solubility kinetic was 2.8 µg/mL (≈ 6.82 µM).
In the case of `O=C1NC(=O)C(c2ccc(Cl)cc2)N1` (configuration not stated), the solubility kinetic is reported as over 31.6 µg/mL.
For `FC(F)(F)c1cccc(-c2nc(-c3ccncc3)no2)c1`, the solubility kinetic was 0.4 µg/mL (≈ 1.37 µM).
`CN(C)/C=C/C(=O)c1ccc(C(F)(F)F)cc1F` gave a solubility kinetic of 35 µg/mL (≈ 134 µM).
In the case of `CN1C(=S)SC(/[N+]([O-])=C/c2ccc(Cl)cc2)C1(C)C` (configuration not stated), the solubility kinetic is reported as 15.7 µg/mL (≈ 49.9 µM).
Molecule `COc1ccccc1C(C[N+](=O)[O-])c1c(N)n(C)c(=O)n(C)c1=O` (configuration not stated) has a solubility kinetic of over 50.1 µg/mL.
Molecule `Cc1onc(-c2ccccc2Cl)c1C(=O)Nc1cccc(S(=O)(=O)N2CCOCC2)c1` has a solubility kinetic of 2 µg/mL (≈ 4.33 µM).
Molecule `CC1CCCC(NC(=O)COC(=O)Cc2ccc(Cl)cc2)C1C` (configuration not stated) has a solubility kinetic of 27.3 µg/mL (≈ 80.8 µM).
`COc1ccc(C(C)NC(=O)c2ccncc2)cc1OC` (configuration not stated) showed a solubility kinetic of over 42.9 µg/mL.
In the case of `COc1nc(-c2ccccc2)nc(C)c1CC(=O)O`, the solubility kinetic is reported as over 38.7 µg/mL.
`NS(=O)(=O)c1ccc(NC(=O)/C=C/c2cccc(Cl)c2)cc1` gave a solubility kinetic of 1.4 µg/mL (≈ 4.16 µM).
`O=c1c2oc3ccccc3c2ncn1Cc1ccc(F)cc1` showed a solubility kinetic of 0.8 µg/mL (≈ 2.72 µM).
For `Cc1ccc(SCCNCc2ccco2)cc1.Cl`, the solubility kinetic was 27.9 µg/mL.
`CN1C(=O)Nc2cccc3cccc1c23` gave a solubility kinetic of 10.1 µg/mL (≈ 51 µM).
In the case of `CCN(Cc1ccccc1)C(=O)c1ccc(Cl)cc1[N+](=O)[O-]`, the solubility kinetic is reported as 44.5 µg/mL (≈ 140 µM).
In the case of `O=C(CC(c1ccccc1)c1cc(Cl)ccc1O)N1CCCC1` (configuration not stated), the solubility kinetic is reported as over 49.5 µg/mL.
Work on `CSc1ccccc1C(=O)NCc1ccccc1C` yielded a solubility kinetic of over 40.7 µg/mL.
`Cc1ccc(N2C(=O)C3CCCN3C2=S)cc1Cl` (configuration not stated) gave a solubility kinetic of over 42.1 µg/mL.
In the case of `CC(=O)c1cccc(NC(=O)CO/N=C2/CCCc3nonc32)c1`, the solubility kinetic is reported as 45.7 µg/mL (≈ 139 µM).
Work on `N#CCN1CCN(CC(=O)c2ccc(Br)cc2)CC1` yielded a solubility kinetic of 47.3 µg/mL (≈ 147 µM).
`CC(=O)c1ccc(NC(=O)CNC2CCCCC2)cc1.Cl` gave a solubility kinetic of 38.4 µg/mL.
In the case of `O=C(Cc1ccc(Cl)cc1)OCC(=O)c1ccc[nH]1`, the solubility kinetic is reported as 27.3 µg/mL (≈ 98.3 µM).
Molecule `CCC(C)NC(=O)C1c2ccccc2C(=O)N1Cc1ccc(F)cc1` (configuration not stated) has a solubility kinetic of over 51.1 µg/mL.
Work on `C=CCn1c(C(C)(C)C)nc2ccccc21` yielded a solubility kinetic of 24.6 µg/mL (≈ 115 µM).
With `O=C(NC(=S)NCCC1=CCCCC1)c1cccnc1` the solubility kinetic was 22.2 µg/mL (≈ 76.7 µM).
`CN(C(=O)C1CCC(=O)N(C2CC2)C1)C1CCCCC1` (configuration not stated) showed a solubility kinetic of over 41.8 µg/mL.
For `O=C(/C=C/c1cccnc1)c1ccc(F)c(F)c1`, the solubility kinetic was 27.8 µg/mL (≈ 113 µM).
`CC(=O)c1cccc(NC(=O)/C(=C/c2ccncc2)NC(=O)c2ccccc2)c1` showed a solubility kinetic of 4.2 µg/mL (≈ 10.9 µM).
`CN(C(=O)c1ccccc1)c1nccnc1C#N` showed a solubility kinetic of over 35.7 µg/mL.
Work on `COc1ccc(S(=O)(=O)NC2CC2)cc1Cl` yielded a solubility kinetic of 35.3 µg/mL (≈ 135 µM).
Molecule `Cc1cc(C)c(C#N)c(SC(C(=O)NC(C)(C)C)c2ccccc2)n1` (configuration not stated) has a solubility kinetic of under 0.3 µg/mL.
Work on `COc1ccccc1/C=C/C(=O)OCC(=O)Nc1ccc2c(c1)OCO2` yielded a solubility kinetic of 3.3 µg/mL (≈ 9.29 µM).
Molecule `O=C(OCC(=O)N1CCCC1)c1ccc(Cl)c([N+](=O)[O-])c1` has a solubility kinetic of 31.8 µg/mL (≈ 102 µM).
`CCOc1ccc(C2Nc3ccccc3C(CC)(CC)O2)cc1` (configuration not stated) gave a solubility kinetic of 2.1 µg/mL (≈ 6.74 µM).
`S=C1NCN(Cc2cccnc2)CN1c1cccc(Cl)c1` showed a solubility kinetic of over 47.8 µg/mL.
Work on `CCn1ccc(C(=O)NCCCN2CCCC2=O)n1` yielded a solubility kinetic of over 39.6 µg/mL.
For `Cc1ccc(/C=C2\C(=O)NC(=S)N(c3ccc(F)cc3)C2=O)o1`, the solubility kinetic was 45.9 µg/mL (≈ 139 µM).
Work on `Cc1cc(SCc2ccc(Cl)c(Cl)c2)nc(=O)[nH]1` yielded a solubility kinetic of 1.4 µg/mL (≈ 4.65 µM).
`C=CCNC(=O)c1ccc(NC(=O)C2=CSCCO2)cc1` gave a solubility kinetic of over 45.7 µg/mL.
Molecule `Cc1nc(N)sc1-c1csc(Nc2cccc(C(=O)O)c2)n1` has a solubility kinetic of over 49.9 µg/mL.
`O=C(O)Cn1cc(C(=O)c2ccccc2F)c2ccccc21` gave a solubility kinetic of 44.5 µg/mL (≈ 150 µM).
With `CC(=O)Nc1ccc(C(=O)NCC(=O)OCc2ccccc2F)cc1` the solubility kinetic was 7.5 µg/mL (≈ 21.8 µM).
Work on `COc1ccccc1CNC(=O)COc1ccccc1C` yielded a solubility kinetic of 38.4 µg/mL (≈ 135 µM).
In the case of `COC(=O)c1nc2ccc(N3CCOCC3)cc2c(C)c1C(=O)OC`, the solubility kinetic is reported as over 51.7 µg/mL.
In the case of `Cc1cc2cc(CNC(=O)Cc3ccc([N+](=O)[O-])cc3)ccc2n1C`, the solubility kinetic is reported as 0.3 µg/mL (≈ 0.889 µM).
With `Fc1ccc(Br)cc1SCCc1ccncc1` the solubility kinetic was 19.7 µg/mL (≈ 63.1 µM).
For `Cc1ccccc1CC(=O)NCCN1CCCCC1`, the solubility kinetic was over 39.1 µg/mL.
Work on `COc1ccc(NC(=O)/C=C/c2cccc(Br)c2)cn1` yielded a solubility kinetic of 3.8 µg/mL (≈ 11.4 µM).
In the case of `O=C(Cn1c(=O)oc2ccccc21)Nc1ccccc1C(F)(F)F`, the solubility kinetic is reported as 10 µg/mL (≈ 29.7 µM).
With `ClCC1NCC(c2ccccc2Cl)c2c1[nH]c1ccccc21` (configuration not stated) the solubility kinetic was 19.3 µg/mL (≈ 58.3 µM).
In the case of `O=C(CN1CCN(Cc2ccccc2F)C1=O)NC1CCCC1`, the solubility kinetic is reported as over 47.9 µg/mL.
`CCC(=O)Nc1cccc(-c2nc3ccc(C)cc3o2)c1` showed a solubility kinetic of 1.6 µg/mL (≈ 5.71 µM).
With `O=C(O)c1ccccc1C(=O)Nc1ccc(Oc2cccc(C(F)(F)F)c2)nc1` the solubility kinetic was 60.2 µg/mL (≈ 150 µM).
In the case of `CN(CC(=O)NCC1COc2ccccc2O1)S(=O)(=O)c1ccc(Cl)cc1` (configuration not stated), the solubility kinetic is reported as 17.9 µg/mL (≈ 43.6 µM).
With `COC(=O)c1scc(C)c1NC(=O)c1ccc(Cl)cc1` the solubility kinetic was 21.3 µg/mL (≈ 68.8 µM).
For `Cc1ccc(C(=O)NCCNC(=O)c2ccc(C)nc2)cc1`, the solubility kinetic was over 44.6 µg/mL.
`C=CCC1(Cl)C(=O)C(Cl)=C(N2CCN(C)CC2)C1(OC)OC` (configuration not stated) showed a solubility kinetic of over 52.4 µg/mL.
For `CC(C)C(=O)Nc1ccc(N2CCCC2)c(Cl)c1`, the solubility kinetic was 10.4 µg/mL (≈ 39 µM).
`CCc1ccc(NC(=O)C2C3CCC(O3)C2C(=O)O)cc1` (configuration not stated) gave a solubility kinetic of 39.3 µg/mL (≈ 136 µM).
Molecule `CC(NCCC1(Cc2ccccc2Cl)CCOC(C)(C)C1)c1cccs1` (configuration not stated) has a solubility kinetic of 46.3 µg/mL (≈ 118 µM).
In the case of `CC(=O)Nc1ccc(NC(=O)c2cc[n+]([O-])cc2)cc1`, the solubility kinetic is reported as over 40.7 µg/mL.
`CC(=O)CCSc1ncnc2sc(-c3ccccc3)cc12` gave a solubility kinetic of 0.6 µg/mL (≈ 1.91 µM).
Molecule `O=C(CSc1ncccn1)NCc1cccc(Cl)c1` has a solubility kinetic of over 44.1 µg/mL.
